From patent US20130266557A1, “METHODS FOR TREATMENT OF A SARCOMA USING AN EPIMETABOLIC SHIFTER (COENZYME Q10)” (priority 2009, published 2013)
“Also recorded” adds a separate entry of the source.

Assays:
NCIES0808 cells = experiment: Two-dimensional gel analysis with MS identification; assay type: cell-based, human
Description: NCIES0808 cells were plated in T25 flasks in experimental conditions similar to those described in the PCR array section. At the end of the treatment time, cells were trypsinized as described in the PCR array section and washed twice in ice cold TBS and snap frozen in liquid nitrogen. Further processing for Western blots was carried out at UMass.
Before isoelectric focusing (IEF), samples were solubilized in 40 mM Tris, 7 M urea, 2 M thiourea, and 1% C7 zwitterionic detergent, reduced with tributylphosphine, and alkylated with 10 mM acrylamide for 90 min at room temperature. After the sample was run through a 10-kDa cutoff Amicon Ultra device with at least 3 volumes of the resuspension buffer, consisting of 7 M urea, 2 M thiourea, and 2% CHAPS to reduce the conductivity of the sample. One hundred micrograms of protein were subjected to IEF on 11-cm pH 3 to 10, pH 4 to 7 or pH 6 to 11 immobilized pH gradient strips (GE, Amersham, USA) to 100,000 volts hour. After IEF, immobilized pH gradient strips were equilibrated in 6 M urea, 2% SDS, 50 mM Tris-acetate buffer, pH 7.0, and 0.01% bromphenol blue and subjected to SDS-polyacrylamide gel electrophoresis on 8 to 16% Tris-HCl Precast Gel, 1 mm (Bio-Rad, USA). The gels were run in duplicate. They were fixed, stained in SYPRO Ruby, 80 mL/gel (Invitrogen, USA) and imaged on Fuji FLA-5100 laser scanner.
Analysis of all gel images was performed using Progenesis Discovery and Pro (Nonlinear Dynamics Inc., Newcastle upon Tyne, UK). After spot detection, matching, background subtraction, normalization, and filtering, data for SYPRO Ruby gel images was exported. […] Manual annotation of each statistically significant spots was performed to assure accurate detection.
Tryptic peptides extracted from respective gel plugs were dried down to a 10 ul volume and acidified with 1-2 ul of 1% TFA. Samples were loaded on an uC18 Zip Tip (Millipore, Corp) after pre-equilibration in 0.1% TFA. After washing with 2×10 ul aliquots of 0.1% TFA, samples were deposited directly onto the MALDI sample target using 1 ul of Matrix solution 15 mg/ml of 2,5 Dihydroxybenzoic Acid (MassPrep DHB, Waters Corp.) in 50:50 Acetonitrile: 0.1% TFA. Samples were allowed to air dry prior to insertion into the mass spectrometer. Analysis were performed on a Kratos Axima QIT (Shimadzu Instruments) matrix-assisted-laser desorption/ionization (MALDI) mass spectrometer. Peptides were analyzed in positive ion mode in mid mass range (700-3000 Da). The instrument was externally calibrated with Angiotensin II (1046.54), P14R (1533.86) and ACTH (18-39) 2465.20 Da. Precursors were selected based on signal intensity at a mass resolution width of 250 for CID fragmentation using Argon as the collision gas. Database searches were performed in house with Mascot (Matrix Sciences, Ltd.) using the Peptide Mass Fingerprint program for MS data and the MS/MS Ion Search program for CID data. All identifications were confirmed or established with CID (MS/MS) data.
NCIES0808 cells treated for 3, 6 and 24 hours were subjected to 2-D gel electrophoreses and were analyzed to identify protein-level changes relative to the control media samples. A comparative analysis of spots across multiple duplicated gels was performed, comparing the “control media sample” against all of the treated samples at both the 50 uM and 100 uM doses. The analysis included the identification of spot changes over the time course due to an increase, decrease, or post-translational modification.

cancer patients = conditions: eight case histories, oral CoQ10; cited from earlier work
[1] = 24 hours, 50 uM Q10, − = down, 1 = no change
[2] = 24 hours, 100 uM Q10, − = down, 1 = no change

## Coenzyme Q10 [CoQ10]
NCIES0808 cells; [1]
  Spot 372, lamin B1: modulation vs control media: 1
  Spot 387, SMT 3 suppressor of mif two 3 homolog 2: modulation vs control media: 1
  Spot 388, heat shock protein 27 kD: modulation vs control media: 1.1
  Spot 396, hnRNP C1/C2: modulation vs control media: −1.4
  Spot 436, eukaryotc translation elongation factor 1 beta 2: modulation vs control media: 1
  Spot 490, Similar to HSPC-300: modulation vs control media: −1.2
  Spot 506, heat shock protein 27 kD: modulation vs control media: −1.2
  Spot 511, eukaryotic translation elongation factor 1 delta: modulation vs control media: 1
  Spot 524, eukaryotic translation elongation factor 1 delta: modulation vs control media: 1
  Spot 532, putative c-myc-responsive isoform 1: modulation vs control media: 1
  Spot 557, lamin B1: modulation vs control media: 1
  Spot 575, ER lipid raft associated 2 isoform 1; beta actin: modulation vs control media: 1.1
  Spot 583, Dismutase Cu/Zn Superoxide: modulation vs control media: 1.1
  Spot 622, DNA directed DNA polymerase epislon 3; (canopy 2 homolog): modulation vs control media: −1.1
  Spot 646, signal sequence receptor 1 delta: modulation vs control media: 1
NCIES0808 cells; [2]
  Spot 16, alpha 2-HS glycoprotein (Bos Taurus, cow): modulation vs control media: 5.9
  Spot 130, ribosomal proten P2; histone H2A: modulation vs control media: −4.2
  Spot 180, beta actin: modulation vs control media: 3
  Spot 234, hnRNP C1/C2: modulation vs control media: −2.6
  Spot 244, heat shock protein 70 kD: modulation vs control media: 1.7
  Spot 275, microtubule associated protein: modulation vs control media: −1.8
  Spot 311, beta tubulin: modulation vs control media: 2.6
  Spot 314, proteasome alpha 3: modulation vs control media: −2.2
  Spot 363, ATP dependent helicase II: modulation vs control media: 2.1
  Spot 369, eukaryotic translation elongation factor 1 delta: modulation vs control media: −2
  Spot 372, lamin B1: modulation vs control media: −2.1
  Spot 387, SMT 3 suppressor of mif two 3 homolog 2: modulation vs control media: −1.95
  Spot 388, heat shock protein 27 kD: modulation vs control media: −1.7
  Spot 396, hnRNP C1/C2: modulation vs control media: −2
  Spot 436, eukaryotc translation elongation factor 1 beta 2: modulation vs control media: −1.9
  Spot 490, Similar to HSPC-300: modulation vs control media: 1.5
  Spot 506, heat shock protein 27 kD: modulation vs control media: −1.9
  Spot 511, eukaryotic translation elongation factor 1 delta: modulation vs control media: −1.6
  Spot 524, eukaryotic translation elongation factor 1 delta: modulation vs control media: −1.7
  Spot 532, putative c-myc-responsive isoform 1: modulation vs control media: 1.4
  Spot 557, lamin B1: modulation vs control media: −1.6
  Spot 575, ER lipid raft associated 2 isoform 1; beta actin: modulation vs control media: 1.6
  Spot 583, Dismutase Cu/Zn Superoxide: modulation vs control media: −1.3
  Spot 622, DNA directed DNA polymerase epislon 3; (canopy 2 homolog): modulation vs control media: −1.6
  Spot 646, signal sequence receptor 1 delta: modulation vs control media: 1.5
NCIES0808 cells; Ewing Sarcoma ES0808 cell line treated with CoQ10
  Expression of proteosome subunits PSMA3, PSMB3, PSMB4 and ubiquitin enzymes (ubiquilin): sustained increases
NCIES0808 cells; Ewing Sarcoma ES0808 cell lines treated with CoQ10
  Ku70 (ATP dependent helicase II) level: decrease
NCIES0808 cells; Ewing Sarcoma cell line treated with CoQ10
  Proteins with observed increase in expression (value = protein), discussion A: ribosomal proteins (RPLP2); also recorded: eukaryotic translation initiation factors (EIF3G, EIF4A2); also recorded: eukaryotic translation elongation factors (EEF1B2, EEF1D); also recorded: heat shock proteins (HSP27, HSP60, HSP70); also recorded: dyenin
NCIES0808 cells; persisted up to 24 hours
  hnRNP C1/C2 expression: down-regulation
Cancer patients
  Survival of cancer patients on therapy with CoQ10: 5-15 years
